Results taken from patent US20240325544A1, “CATIONIC LIPID FOR COVALENT MODIFICATION OF PEPTIDES” (PharmalN Corporation, priority 2023, published 2024).
Marks after values point to notes of the source that are not given here. Bridge positions count the residues as written; N and C are the ends. Square brackets hold non-standard residues; d marks the D form. Peptide text beside a SMILES is read from it. * marks the point of attachment. Palmitoyl = CCCCCCCCCCCCCCCC(=O)*; Dab = NCC[C@H](N)C(=O)O; Dap = NC[C@H](N)C(=O)O; AEEA = NCCOCCOCC(=O)O

Experiments:
C57BL/6J mice = assay: Survival in LPS induced sepsis model (FIG. 2A); assay type: in vivo; conditions: LPS 15 mg/kg IP; 0.3 mg/kg (0.1 μmol/kg) SC once, survival to 56 hours
Method: FIGS. 2A-2B: Single and repeat administration of cationic alkyl modified C-type Natriuretic Peptides increases probability of survival in LPS induced Sepsis and ALI animal models. FIG. 2A) Sepsis induction: Male C57BL/6J mice (n=10 per group; 3 groups) were injected IP with LPS (15 mg/kg) and treated with various test articles, including cationic alkyl modified CNPs (SEQ ID NO: 31 and 29; 0.3 mg/kg (0.1 μmol/kg) SC). The control group received LPS treatment without any test article. The test articles were administered immediately after LPS administration (marked with vertical dotted lines). Survival was monitored every 2 hours from 8-56 hours, after which the surviving mice were euthanized under isoflurane anesthesia. […] Survival was monitored every 8 hours for 72 hours, after which the surviving mice were euthanized under isoflurane anesthesia. […]
Animal care and treatment: Male C57BL/6J mice (6 weeks-old) were purchased from Kyudo (Saga, Japan) and maintained under a 12-hour light/12-hour dark cycle with free access to water and standard mouse diet (MF diet, Oriental Yeast Co., Ltd. Tokyo, Japan). […] Survival was monitored every 2 hours from 8-56 hours, after which the mice were euthanized under isoflurane anesthesia. […] Survival was monitored every 8 hours for 72 hours, after which the mice were euthanized under isoflurane anesthesia. […]

[1] = system: inflammatory cytokines (MCP1, IL-6, TNFα) in BALF; assay: LPS ALI model: inflammatory cytokines in BALF by ELISA (Table 4); assay type: in vivo, mice; conditions: LPS 0.05 mg/kg IT; SEQ 0.3 mg/kg SC, Sivelestat 150 mg/kg IP; 24 hours
Method: Animal care and treatment: Male C57BL/6J mice (6 weeks-old) were purchased from Kyudo (Saga, Japan) and maintained under a 12-hour light/12-hour dark cycle with free access to water and standard mouse diet (MF diet, Oriental Yeast Co., Ltd. Tokyo, Japan). Drug administration: Mice were administered LPS (0.05 mg/kg IT; Sigma-Aldrich) followed by treatment with various test articles, including Sivelestat (150 mg/kg; Nipro, Osaka, Japan), an inhibitor of human neutrophil elastase, injected IP as a positive control, and cationic alkyl modified CNPs (SEQ ID NO: 31, 29, and 30; 0.3 mg/kg (0.1 μmol/kg) SC). The test articles were administered immediately after LPS injection. Additionally, a normal control (NC) group without LPS administration and a Control group receiving only LPS without any test article were included. After 24 hours, the mice were euthanized under isoflurane anesthesia and BALF was harvested. Biochemical analysis: ALI and ARDS are often characterized by increased levels of inflammatory cytokines, including Macrophage Chemoattractant Protein-1 (MCP1), Interleukin-6 (IL-6), and […] (TNFα), in BALF. Decreases in their concentration can indicate the resolution of ALI/ARDS. Concentration of each cytokine (MCP1, IL-6, and TNFα) was measured using an ELISA kit (R&D SYSTEMS, Minneapolis M N). […] Statistical analysis was based on Dunnett's test performed by using GraphPad. (n=5, 8, 8, 8, and 8; NC, Control, PC, SEQ ID NO: 31, SEQ ID NO: 29). *** P<0.001, ** P<0.01, * P<0.05 vs each corresponding Control group.

Sprague Dawley rats = assay: Dose-range finding of cationic alkyl modified CNP, subcutaneous bolus in rats (Table 2)
Method: Animal care and treatment: Male Sprague Dawley rats aged 8 to 10 weeks (Charles River, Hollister, CA) were housed in groups of two (n=3/group) in disposable polypropylene cages with rodent cob bedding at the PharmaIN animal facility. Animals had ad libitum access to food (LabDiet Pico Rodent #5053; Animal Specialties, Woodburn, OR) and water. Temperature (68-74° F.) and humidity (30-60%) were maintained within a controlled range, and a 12-hour light/dark cycle was used. […] Animals were monitored closely during the first 4 hours following injection, then hourly throughout the rest of the day for any signs of swelling or discoloration (dilatory side effect), lethargy (side effect), ataxia (ataxia is used as a marker of toxicity). Rats were allowed a 1-week wash-out period between bolus doses. Following final observations, animals were humanely euthanized through CO2 asphyxiation.

SMILES: CCCCCCCCCCCCCCCC(=O)NCCOCCOCC(=O)NCCOCCOCC(=O)NCCOCCOCC(=O)N[C@@H](CN)C(=O)N[C@@H](CN)C(=O)NCC(=O)N[C@@H](CC(C)C)C(=O)N[C@@H](CO)C(=O)N[C@@H](CCCCN)C(=O)NCC(=O)N[C@H]1CSSC[C@@H](C(=O)O)NC(=O)CNC(=O)[C@H](CC(C)C)NC(=O)CNC(=O)[C@H](CO)NC(=O)[C@H](CCC(N)=O)NC(=O)[C@H](CO)NC(=O)CNC(=O)[C@H]([C@@H](C)CC)NC(=O)[C@H](CCCNC(=N)N)NC(=O)[C@H](CC(=O)O)NC(=O)[C@H](CC(C)C)NC(=O)[C@H](CCCCN)NC(=O)[C@H](CC(C)C)NC(=O)CNC(=O)[C@H](Cc2ccccc2)NC1=O [SEQ ID NO: 31] ({Palmitoyl-AEEA-AEEA-AEEA}-[Dap][Dap]GLSKGCFGLKLDRIGSQSGLGC-OH; disulfide 8-24; C-terminus assumed)
- Survival (C57BL/6J mice): effective in improving survival
- IL-6 in BALF [1]: 56* % Of Control
- MCP1 in BALF [1]: 50** % Of Control
- TNFα in BALF [1]: 28** % Of Control
- Ataxia** in n = 3 (Sprague Dawley rats; up to 10 mg/kg): >10 mg/kg
- Lethargy* in n = 3 (Sprague Dawley rats; up to 10 mg/kg): >10 mg/kg
- Ataxia** in n = 3 (Sprague Dawley rats; value in parentheses): (3.3) μmol/kg
- Lethargy* in n = 3 (Sprague Dawley rats; value in parentheses): (3.3) μmol/kg

SMILES: CCCCCCCCCCCCCCCC(=O)NCCOCCOCC(=O)NCCOCCOCC(=O)NCCOCCOCC(=O)N[C@@H](CCN)C(=O)N[C@@H](CCN)C(=O)NCC(=O)N[C@@H](CC(C)C)C(=O)N[C@@H](CO)C(=O)N[C@@H](CCCCN)C(=O)NCC(=O)N[C@H]1CSSC[C@@H](C(=O)O)NC(=O)CNC(=O)[C@H](CC(C)C)NC(=O)CNC(=O)[C@H](CO)NC(=O)[C@H](CCC(N)=O)NC(=O)[C@H](CO)NC(=O)CNC(=O)[C@H]([C@@H](C)CC)NC(=O)[C@H](CCCNC(=N)N)NC(=O)[C@H](CC(=O)O)NC(=O)[C@H](CC(C)C)NC(=O)[C@H](CCCCN)NC(=O)[C@H](CC(C)C)NC(=O)CNC(=O)[C@H](Cc2ccccc2)NC1=O [SEQ ID NO: 29] ({Palmitoyl-AEEA-AEEA-AEEA}-[Dab][Dab]GLSKGCFGLKLDRIGSQSGLGC-OH; disulfide 8-24; C-terminus assumed)
- Survival (C57BL/6J mice): effective in improving survival
- IL-6 in BALF [1]: 76 % Of Control
- MCP1 in BALF [1]: 69 % Of Control
- TNFα in BALF [1]: 39** % Of Control
- Ataxia** in n = 3 (Sprague Dawley rats; up to 10 mg/kg): >10 mg/kg
- Lethargy* in n = 3 (Sprague Dawley rats; up to 10 mg/kg): ≥9.5 mg/kg
- Ataxia** in n = 3 (Sprague Dawley rats; value in parentheses): (3.3) μmol/kg
- Lethargy* in n = 3 (Sprague Dawley rats; value in parentheses): (3.1) μmol/kg
